{"source": "paper PMC9964404", "about": "“Molecular Modeling and In Vitro Evaluation of Piplartine Analogs against Oral Squamous Cell Carcinoma” (Molecules, 2023)", "note": "pIC50: −log10 of the molar value."}
{"tested_on": "SCC9 cells", "experiment": "MTT cell viability (cytotoxicity) assay, SCC9", "type": "cell-based, human", "conditions": "Homo sapiens, SCC-9; 48 h treatment, MTT; N.D. = not determined, not toxic to SCC cells; read-out: SCC9 IC50 (class N.D.)", "experimental": "(§1) SCC cells (SCC9 and SCC4), derived from human tongue OSCC, were obtained by (ATCC® CRL-1629 and CRL-1624) and maintained in DMEM/F12 1:1 medium (Dulbecco’s modified Eagle’s medium and Ham’s F12 medium, Gibco (Thermo Fisher, Waltham, MA, USA), supplemented with 10% (v/v) FBS (Fetal Bovine Serum; Invitrogen, Thermo Fisher, Waltham, MA, USA) and 400 ng/mL hydrocortisone (Sigma-AldrichCo., St. Louis, MO, USA). Primary normal gingival fibroblast human (PCS201 018TM) and other tumor cells B16-F10 (CRL-6475), Hep G2 (HB-8065), and HT-29 (HTB-38) were also obtained at ATCC and maintained in DMEM supplemented with 10% (v/v) FCS. Cells were cultured in a humidified environment containing 5% CO2 at 37 °C. For all experiments, the compounds were solubilized in DMSO (Sigma-Aldrich) for a final concentration of 100 mM. From this dilution, other concentrations were made to carry out the cell viability assay. Carboplatin (Fauldcarbo®; Libbs Farmacêutica, São Paulo, SP, Brazil) was used as a control antitumor compound.\n(§2) The viability of cancer cells and primary fibroblasts was tested using the MTT assay as described in MACHADO et al., 2021 [49]. Briefly, cancer cells (5 × 10^3 cells/well) were plated in duplicate in a 96-well plate, as indicated. DMSO was diluted in culture medium at the same concentrations and was used as a negative control, representing 100% cell viability. After 48 h of treatment, cells were incubated for 3.5 h with 5 mg/mL of MTT reagent (3,4,5-dimethiazol-2,5-diphenyltetrazoliumbromide) (Sigma-Aldrich Co., St. Louis, MO, USA) diluted in culture medium. Subsequently, the formazan crystals were dissolved by MTT solvent (50% Methanol and 50% DMSO), and the absorbance was read at 560 nm using the EPOCH microplate spectrophotometer (BioTekInstruments, Winooski, VT, USA).\n(§3) IC50 values for the MTT assay were obtained by non-linear regression using GraphPad Prism 5.0 software (GraphPad, San Diego, CA, USA) from at least three independent experiments. Data are presented as means, ± standard deviation (SD). A log dose response (inhibitor) vs. response curve using the least square method was used to determine the IC50 and SD of the data. The selectivity index was calculated as: S.I. = IC50 of the compound in fibroblasts/IC50 of the same compound in tumor cells."}
{"smiles": "COc1cc(C(=O)NCC(C)C)cc(OC)c1OC", "note": "[Compound 14, N-Isobutyl-3,4,5–trimethoxybenzamide]", "pIC50": "< 3.00"}
{"tested_on": "SCC9 cells", "experiment": "MTT cell viability (cytotoxicity) assay, SCC9", "type": "cell-based, human", "conditions": "Homo sapiens, SCC-9; 48 h treatment, MTT; read-out: SCC9 IC50", "experimental": "as §1, §2, §3"}
{"smiles": "COc1cc(C(=O)OCCC(C)C)cc(OC)c1OC", "note": "[Compound 6, Isopentyl 3,4,5–trimethoxybenzoate]", "pIC50": 3.80}
{"smiles": "CCCCOC(=O)c1cc(OC)c(OC)c(OC)c1", "note": "[Compound 5, Butyl 3,4,5–trimethoxybenzoate]", "pIC50": 3.69}
{"smiles": "COc1cc(C(=O)OCc2ccc3ccccc3c2)cc(OC)c1OC", "note": "[Compound 11, 2-Methylnaphthalene 3,4,5–trimethoxybenzoate]", "pIC50": 3.51}
{"smiles": "CCCCNC(=O)c1cc(OC)c(OC)c(OC)c1", "note": "[Compound 13, N-Butyl-3,4,5–trimethoxybenzamide]", "pIC50": 3.33}
{"smiles": "CCCCCCCCCCOC(=O)c1cc(OC)c(OC)c(OC)c1", "note": "[Compound 8, Decyl 3,4,5–trimethoxybenzoate]", "pIC50": 3.02}
{"smiles": "CCCCCOC(=O)c1cc(OC)c(OC)c(OC)c1", "note": "[Compound 7, Pentyl 3,4,5–trimethoxybenzoate]", "pIC50": 3.59}
{"smiles": "COc1cc(C(=O)OC(c2ccccc2)c2ccccc2)cc(OC)c1OC", "note": "[Compound 12, Diphenyl 3,4,5–trimethoxybenzoate]", "pIC50": 3.08}
{"smiles": "CCCOC(=O)c1cc(OC)c(OC)c(OC)c1", "note": "[Compound 3, Propyl 3,4,5–trimethoxybenzoate]", "pIC50": 3.52}
{"smiles": "COC(=O)c1cc(OC)c(OC)c(OC)c1", "note": "[Compound 1, Methyl 3,4,5–trimethoxybenzoate]", "pIC50": 3.07}
{"tested_on": "SCC9 cells", "experiment": "MTT cell viability (cytotoxicity) assay, SCC9", "type": "cell-based, human", "conditions": "Homo sapiens, SCC-9; 48 h treatment, MTT; read-out: SCC9 IC50 (µg/mL)", "experimental": "as §1, §2, §3", "units": {"IC50": "µg/mL"}}
{"smiles": "COc1cc(C(=O)OCCC(C)C)cc(OC)c1OC", "note": "[Compound 6, Isopentyl 3,4,5–trimethoxybenzoate]", "IC50": 45.2}
{"smiles": "CCCCOC(=O)c1cc(OC)c(OC)c(OC)c1", "note": "[Compound 5, Butyl 3,4,5–trimethoxybenzoate]", "IC50": 54.8}
{"smiles": "COc1cc(C(=O)OCc2ccc3ccccc3c2)cc(OC)c1OC", "note": "[Compound 11, 2-Methylnaphthalene 3,4,5–trimethoxybenzoate]", "IC50": 109}
{"smiles": "CCCCNC(=O)c1cc(OC)c(OC)c(OC)c1", "note": "[Compound 13, N-Butyl-3,4,5–trimethoxybenzamide]", "IC50": 125}
{"smiles": "CCCCCCCCCCOC(=O)c1cc(OC)c(OC)c(OC)c1", "note": "[Compound 8, Decyl 3,4,5–trimethoxybenzoate]", "IC50": 337}
{"smiles": "CCCCCOC(=O)c1cc(OC)c(OC)c(OC)c1", "note": "[Compound 7, Pentyl 3,4,5–trimethoxybenzoate]", "IC50": 72.7}
{"smiles": "COc1cc(C(=O)OC(c2ccccc2)c2ccccc2)cc(OC)c1OC", "note": "[Compound 12, Diphenyl 3,4,5–trimethoxybenzoate]", "IC50": 314}
{"smiles": "CCCOC(=O)c1cc(OC)c(OC)c(OC)c1", "note": "[Compound 3, Propyl 3,4,5–trimethoxybenzoate]", "IC50": 76}
{"smiles": "COC(=O)c1cc(OC)c(OC)c(OC)c1", "note": "[Compound 1, Methyl 3,4,5–trimethoxybenzoate]", "IC50": 194}
{"tested_on": "not given", "experiment": "not given", "conditions": "not given", "units": {"melting point": "°C"}}
{"smiles": "COc1cc(C(=O)OCc2ccc3ccccc3c2)cc(OC)c1OC", "note": "[Compound 11, 2-Methylnaphthalene 3,4,5–trimethoxybenzoate]", "melting point": "84 to 85"}
{"smiles": "CCCCNC(=O)c1cc(OC)c(OC)c(OC)c1", "note": "[Compound 13, N-Butyl-3,4,5–trimethoxybenzamide]", "melting point": "115 to 116"}
{"smiles": "CCCCCCCCCCOC(=O)c1cc(OC)c(OC)c(OC)c1", "note": "[Compound 8, Decyl 3,4,5–trimethoxybenzoate]", "melting point": "49 to 50"}
{"smiles": "COc1cc(C(=O)NCC(C)C)cc(OC)c1OC", "note": "[Compound 14, N-Isobutyl-3,4,5–trimethoxybenzamide]", "melting point": "118 to 119"}
{"smiles": "COc1cc(C(=O)OC(c2ccccc2)c2ccccc2)cc(OC)c1OC", "note": "[Compound 12, Diphenyl 3,4,5–trimethoxybenzoate]", "melting point": "57 to 58"}
{"smiles": "CCCOC(=O)c1cc(OC)c(OC)c(OC)c1", "note": "[Compound 3, Propyl 3,4,5–trimethoxybenzoate]", "melting point": "34 to 35"}
{"tested_on": "Primary Gingival Fibroblast", "experiment": "MTT cell viability assay, normal fibroblasts", "type": "cell-based, human", "conditions": "Homo sapiens, Fibroblast, 48 h treatment, read-out: Primary Gingival Fibroblast IC50", "experimental": "as §1, §2, §3"}
{"smiles": "COc1cc(C(=O)OCCC(C)C)cc(OC)c1OC", "note": "[Compound 6, Isopentyl 3,4,5–trimethoxybenzoate]", "pIC50": 3.24}
{"smiles": "CCCCOC(=O)c1cc(OC)c(OC)c(OC)c1", "note": "[Compound 5, Butyl 3,4,5–trimethoxybenzoate]", "pIC50": 3.29}
{"smiles": "COc1cc(C(=O)OCc2ccc3ccccc3c2)cc(OC)c1OC", "note": "[Compound 11, 2-Methylnaphthalene 3,4,5–trimethoxybenzoate]", "pIC50": 2.47}
{"smiles": "CCCCNC(=O)c1cc(OC)c(OC)c(OC)c1", "note": "[Compound 13, N-Butyl-3,4,5–trimethoxybenzamide]", "pIC50": 2.63}
{"smiles": "CCCCCOC(=O)c1cc(OC)c(OC)c(OC)c1", "note": "[Compound 7, Pentyl 3,4,5–trimethoxybenzoate]", "pIC50": 3.38}
{"smiles": "CCCOC(=O)c1cc(OC)c(OC)c(OC)c1", "note": "[Compound 3, Propyl 3,4,5–trimethoxybenzoate]", "pIC50": 2.90}
{"tested_on": "Primary Gingival Fibroblast", "experiment": "MTT cell viability assay, normal fibroblasts", "type": "cell-based, human", "conditions": "Homo sapiens, Fibroblast, 48 h treatment, read-out: Primary Gingival Fibroblast IC50 (µg/mL)", "experimental": "as §1, §2, §3", "units": {"IC50": "µg/mL"}}
{"smiles": "COc1cc(C(=O)OCCC(C)C)cc(OC)c1OC", "note": "[Compound 6, Isopentyl 3,4,5–trimethoxybenzoate]", "IC50": 161}
{"smiles": "CCCCOC(=O)c1cc(OC)c(OC)c(OC)c1", "note": "[Compound 5, Butyl 3,4,5–trimethoxybenzoate]", "IC50": 137}
{"smiles": "COc1cc(C(=O)OCc2ccc3ccccc3c2)cc(OC)c1OC", "note": "[Compound 11, 2-Methylnaphthalene 3,4,5–trimethoxybenzoate]", "IC50": 1200}
{"smiles": "CCCCNC(=O)c1cc(OC)c(OC)c(OC)c1", "note": "[Compound 13, N-Butyl-3,4,5–trimethoxybenzamide]", "IC50": 631}
{"smiles": "CCCCCOC(=O)c1cc(OC)c(OC)c(OC)c1", "note": "[Compound 7, Pentyl 3,4,5–trimethoxybenzoate]", "IC50": 118}
{"smiles": "CCCOC(=O)c1cc(OC)c(OC)c(OC)c1", "note": "[Compound 3, Propyl 3,4,5–trimethoxybenzoate]", "IC50": 319}
{"tested_on": "SCC4 cells", "experiment": "MTT cell viability assay, SCC4", "type": "cell-based, human", "conditions": "Homo sapiens, SCC-4, 48 h treatment, calculated as in Table 1, no cytotoxic effect in SCC4, read-out: SCC4 IC50 (class N.D.)", "experimental": "as §1, §2, §3"}
{"smiles": "CCCCNC(=O)c1cc(OC)c(OC)c(OC)c1", "note": "[Compound 13, N-Butyl-3,4,5–trimethoxybenzamide]", "pIC50": "< 3.00"}
{"smiles": "CCCOC(=O)c1cc(OC)c(OC)c(OC)c1", "note": "[Compound 3, Propyl 3,4,5–trimethoxybenzoate]", "pIC50": "< 3.00"}
{"tested_on": "mouse erythrocytes", "experiment": "not given", "parameters": "method as in PMID 16163826", "conditions": "cited from earlier work"}
{"smiles": "COc1cc(/C=C/C(=O)N2CCC=CC2=O)cc(OC)c1OC", "note": "[piplartine]", "hemolytic activity": "did not reveal hemolytic activity"}
